Assays:
[1] = Oral treatment of a person with andropause-type symptoms; format: in vivo, human; conditions: oral 3×100 mg daily, 4 weeks, one person
Method: A person with complaints of decreased libido, lethargy, depression, and muscular weakness, was treated for 4 weeks with oral androstenedione 3×100 mg daily. […] After a 2 week respite, they then commenced a 4 week regimen of 5alpha-ANDROST-1-EN-3,17-DIONE using the same protocol (3×100 mg daily).

[2] = 100 mg orally to men; cited from earlier work
[3] = Steroids (8) 216; cited from earlier work

SMILES	reported improvement of symptoms (decreased libido, lethargy, depression, muscular weakness) [1]	excretion of 17beta-hydroxy-5alpha-androst-1-en-3-one in the urine [2]	anabolic properties relative to testosterone [3]
C[C@]12C=CC(=O)C[C@@H]1CC[C@@H]1[C@@H]2CC[C@]2(C)C(=O)CC[C@@H]12 [5alpha-ANDROST-1-EN-3,17-DIONE, 5alpha-androst-1-en-3,17-dione]	clearly evident significant improvements in all their symptoms	considerable excretion	–
C[C@]12C=CC(=O)C[C@@H]1CC[C@@H]1[C@@H]2CC[C@]2(C)[C@@H](O)CC[C@@H]12 [17beta-hydroxy-5alpha-androst-1-en-3-one]	–	–	considerably more potent
C[C@]12CCC(=O)C=C1CC[C@@H]1[C@@H]2CC[C@]2(C)C(=O)CC[C@@H]12 [androstenedione, 4-androstenedione]	did not report any noticeable improvement	–	–

— patent US6391868B1, “Use of 5-alpha-androst-1-en-3,17-dione to increase the level of the anabolic/androgenic hormone 17-beta-hydroxy-5-alpha-androst-1-en-3-one in humans” (LPT Research, Inc., priority 2000, dated 2002)
